In US20210038607A1, “OXADIAZOLYLTHIOPHENE DERIVATIVES USEFUL AS HISTONE DEACETYLASE INHIBITORS” (Karus Therapeutics Limited, priority 2018, published 2021) one finds IC50 data, which are given here for 13 compounds.

A value given as a limit tells only on which side of the number the result lay.

One assay concerns the target T1, Human HDAC7 (Homo sapiens, UniProt Q8WUI4).
T1 construct: (a.a. 518-end) with N-terminal GST tag; GST (N); host or cells: baculovirus expression system
T1 sequence (Q8WUI4 518-952 limits assumed): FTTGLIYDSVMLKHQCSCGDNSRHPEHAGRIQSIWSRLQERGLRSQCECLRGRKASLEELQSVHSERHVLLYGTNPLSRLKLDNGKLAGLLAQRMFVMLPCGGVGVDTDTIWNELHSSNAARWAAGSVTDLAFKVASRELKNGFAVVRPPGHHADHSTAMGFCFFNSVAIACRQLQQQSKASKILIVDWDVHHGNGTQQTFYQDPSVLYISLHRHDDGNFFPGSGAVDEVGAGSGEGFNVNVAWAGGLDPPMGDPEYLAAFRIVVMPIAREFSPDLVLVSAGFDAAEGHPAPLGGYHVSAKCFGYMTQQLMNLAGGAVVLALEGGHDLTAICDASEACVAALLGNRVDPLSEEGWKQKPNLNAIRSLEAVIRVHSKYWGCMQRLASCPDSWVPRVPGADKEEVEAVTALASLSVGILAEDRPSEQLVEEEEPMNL
Put plainly: HDAC7 biochemical assay, class IIa-specific substrate. The settings on record: read-out: HDAC Isoform IC50 (nM) 7. The method, boiled down: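 Two-step fluorogenic readout: class IIa-selective trifluoroacetyl-lysine AMC substrate (50 μM) deacetylated by N-terminal GST-HDAC7 fragment (0.001 ng/ul), then digested by developer, Ex/Em 360/460. Reaction: 30 min, room temperature, Tris-HCl pH 8.0, NaCl/KCl/MgCl2, 1 mg/mL BSA, 1% DMSO.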

A further assay addresses T2, Human HDAC8 (Homo sapiens, UniProt Q9BY41).
T2 construct: full length with C-terminal His tag, MW=42.6 kDa; His (C); host or cells: baculovirus expression system
T2 sequence (Q9BY41 1-377): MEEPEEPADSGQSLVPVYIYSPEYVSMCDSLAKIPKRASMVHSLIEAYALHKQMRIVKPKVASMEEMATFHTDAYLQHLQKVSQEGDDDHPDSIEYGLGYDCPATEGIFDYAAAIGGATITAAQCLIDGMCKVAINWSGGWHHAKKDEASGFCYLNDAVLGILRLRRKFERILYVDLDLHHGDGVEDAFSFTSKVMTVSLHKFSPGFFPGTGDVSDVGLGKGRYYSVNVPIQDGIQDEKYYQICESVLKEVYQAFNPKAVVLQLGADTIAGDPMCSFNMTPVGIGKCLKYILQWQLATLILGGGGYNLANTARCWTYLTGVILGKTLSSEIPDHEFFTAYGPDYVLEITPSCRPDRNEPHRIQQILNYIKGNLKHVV
The assay is described as follows: HDAC8 biochemical assay, AMC-labeled peptide substrate. The note with it: read-out: HDAC Isoform IC50 (nM) 8. Put shortly: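 Two-step fluorogenic readout: compounds and enzyme deacetylate 100 µM RHK(Ac)K(Ac)AMC for 2 h at 30° C (pH8.0 Tris buffer, BSA, 1% DMSO final), then developer releases AMC, read at 360/460 Ex/Em. Enzyme: 1 ng/ul full-length His-tagged human HDAC8 from baculovirus.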

The next assay has as its target T3, Human HDAC2 (Homo sapiens, UniProt Q92769).
T3 construct: full length with C-terminal GST-tag; GST (C); host or cells: baculovirus expression system
The assay is described as follows: HDAC2 biochemical assay, AMC-labeled peptide substrate. The note with it: read-out: HDAC Isoform IC50 (nM) 2. The method, boiled down:
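Full-length human HDAC2 with C-terminal GST tag, baculovirus-expressed, at 0.07 ng/ul with 50 μM RHKK(Ac)AMC substrate in Tris-HCl pH8.0 buffer with BSA, 1% DMSO final. Incubated 1 hour at 30° C with compounds, then developer added; fluorescence read at 360/460 Ex/Em.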

For another assay, the target named is T4, Human HDAC5 (Homo sapiens, UniProt Q9UQL6).
T4 construct: full length with C-terminal His tag, MW=51.1 kDa; His (C); host or cells: baculovirus expression system
The assay is described as follows: HDAC5 biochemical assay, class IIa-specific substrate. The note with it: read-out: HDAC Isoform IC50 (nM) 5. The method, boiled down: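 Two-step fluorogenic read-out: deacetylated trifluoroacetyl-lysine AMC substrate (50 μM) digested by developer, measured at Ex/Em 360/460. Deacetylation step: 0.05 ng/ul His-tagged full-length baculoviral enzyme with compound, 30 min, room temperature, pH 8.0 Tris with 1 mg/mL BSA and 1% DMSO.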

A further assay addresses T5, Human HDAC1 (Homo sapiens, UniProt Q13547).
T5 construct: full length with C-terminal His-tag and C-terminal FLAG-tag; His (C); FLAG (C); host or cells: baculovirus expression system
Put plainly: HDAC1 biochemical assay, AMC-labeled peptide substrate. The note with it: read-out: HDAC Isoform IC50 (nM) 1. Put shortly: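 Two-step fluorogenic read: HDAC1 deacetylates 50 μM acetyl-lysine AMC peptide RHKK(Ac)AMC for 1 h at 30° C (pH 8.0, 1% DMSO, with compound), then developer digests the product for fluorescence at Ex/Em 360/460. Enzyme is full-length human, His/FLAG-tagged, insect-cell expressed, at 0.3 ng/ul.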

T5 sequence (Q13547 whole entry): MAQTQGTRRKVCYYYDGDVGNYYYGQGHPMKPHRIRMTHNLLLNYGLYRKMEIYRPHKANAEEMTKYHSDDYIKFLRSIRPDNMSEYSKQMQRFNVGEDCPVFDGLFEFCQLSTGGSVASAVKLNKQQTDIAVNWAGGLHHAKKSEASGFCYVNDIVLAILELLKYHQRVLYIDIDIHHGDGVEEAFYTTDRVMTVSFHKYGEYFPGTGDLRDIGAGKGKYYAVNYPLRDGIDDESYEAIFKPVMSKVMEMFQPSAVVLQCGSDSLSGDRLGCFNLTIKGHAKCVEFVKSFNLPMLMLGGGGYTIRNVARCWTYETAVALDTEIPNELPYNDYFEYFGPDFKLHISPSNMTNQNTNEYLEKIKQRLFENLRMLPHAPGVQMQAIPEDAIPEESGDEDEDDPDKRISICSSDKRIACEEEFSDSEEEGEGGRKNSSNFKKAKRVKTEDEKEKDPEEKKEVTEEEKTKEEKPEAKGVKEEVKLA
T3 sequence (Q92769 whole entry): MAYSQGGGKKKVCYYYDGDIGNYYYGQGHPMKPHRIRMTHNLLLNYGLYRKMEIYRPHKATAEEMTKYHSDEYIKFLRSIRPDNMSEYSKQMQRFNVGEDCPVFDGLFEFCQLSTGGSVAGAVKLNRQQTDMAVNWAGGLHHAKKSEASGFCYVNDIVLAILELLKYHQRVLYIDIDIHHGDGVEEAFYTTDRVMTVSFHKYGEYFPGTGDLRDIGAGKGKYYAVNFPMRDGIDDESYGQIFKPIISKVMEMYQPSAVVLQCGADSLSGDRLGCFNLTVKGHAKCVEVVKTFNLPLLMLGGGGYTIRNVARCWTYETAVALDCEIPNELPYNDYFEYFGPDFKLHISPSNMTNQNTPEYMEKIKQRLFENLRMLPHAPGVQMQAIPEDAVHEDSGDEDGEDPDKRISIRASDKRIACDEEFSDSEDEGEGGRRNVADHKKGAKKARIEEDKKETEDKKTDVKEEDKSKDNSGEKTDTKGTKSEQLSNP
T4 sequence (Q9UQL6 656-1122 limits assumed): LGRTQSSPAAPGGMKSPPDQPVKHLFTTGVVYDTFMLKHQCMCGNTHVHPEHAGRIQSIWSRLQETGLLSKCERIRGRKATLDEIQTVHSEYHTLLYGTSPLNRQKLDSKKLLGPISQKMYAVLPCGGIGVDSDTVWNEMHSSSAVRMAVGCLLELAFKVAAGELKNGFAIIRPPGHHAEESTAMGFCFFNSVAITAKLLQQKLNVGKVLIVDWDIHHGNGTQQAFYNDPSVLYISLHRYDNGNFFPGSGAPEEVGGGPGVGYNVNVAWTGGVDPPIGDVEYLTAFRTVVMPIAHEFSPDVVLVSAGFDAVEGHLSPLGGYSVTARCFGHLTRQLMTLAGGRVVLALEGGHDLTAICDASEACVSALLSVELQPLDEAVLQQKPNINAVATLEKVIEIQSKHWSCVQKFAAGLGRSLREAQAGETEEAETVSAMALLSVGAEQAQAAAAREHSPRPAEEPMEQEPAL

In the case of `O=C(c1ccc(N(Cc2ccc(-c3noc(C(F)(F)F)n3)s2)c2cnccn2)nn1)N1C[C@@H]2C[C@H]1C[S@@+]2[O-]` [Example FR, (1S,2R,4S)-5-{6-[(Pyrazin-2-yl)({5-[5-(trifluoromethyl)-1,2,4-oxadiazol-3-yl]thiophen-2-yl}methyl)amino]pyridazine-3-carbonyl}-2-thia-5-azabicyclo[2.2.1]heptan-2-ium-2-olate], the IC50 on Human HDAC7 is ≤ 500 nM; at Human HDAC8, ≤ 10000 nM; on Human HDAC2, > 10000 nM; on Human HDAC5, ≤ 500 nM; on Human HDAC1 it was ≤ 10000 nM.

On to `O=C(c1cnnc(N(Cc2ccc(-c3noc(C(F)(F)F)n3)s2)c2cnccn2)c1)N1CCC1` [Example FS, 5-(Azetidine-1-carbonyl)-N-(pyrazin-2-yl)-N-({5-[5-(trifluoromethyl)-1,2,4-oxadiazol-3-yl]thiophen-2-yl}methyl)pyridazin-3-amine], for which the IC50 on Human HDAC7 was ≤ 1000 nM; at Human HDAC8 it was ≤ 10000 nM; on Human HDAC2, > 10000 nM; at Human HDAC5, ≤ 1000 nM; on Human HDAC1, > 10000 nM.

Take `O=C(c1cnnc(N(Cc2ccc(-c3noc(C(F)(F)F)n3)s2)c2cnccn2)c1)N1CC(F)(F)C1` [Example FT, 5-(3,3-Difluoroazetidine-1-carbonyl)-N-(pyrazin-2-yl)-N-({5-[5-(trifluoromethyl)-1,2,4-oxadiazol-3-yl]thiophen-2-yl}methyl)pyridazin-3-amine]: the IC50 was ≤ 10000 nM on Human HDAC7; ≤ 10000 nM on Human HDAC8; > 10000 nM at Human HDAC2; ≤ 1000 nM at Human HDAC5; > 10000 nM on Human HDAC1.

Turning to `O=C(c1cnnc(N(Cc2ccc(-c3noc(C(F)(F)F)n3)s2)c2cnccn2)c1)N1CC[S+]([O-])CC1` [Example FU, 4-{6-[(Pyrazin-2-yl)({5-[5-(trifluoromethyl)-1,2,4-oxadiazol-3-yl]thiophen-2-yl}methyl)amino]pyridazine-4-carbonyl}-1lambda4-thiomorpholin-1-one], the IC50 on Human HDAC7 was ≤ 10000 nM; on Human HDAC8, ≤ 10000 nM; at Human HDAC2 it was > 10000 nM; at Human HDAC5, ≤ 1000 nM; at Human HDAC1, > 10000 nM.

In the case of `O=C(c1cnnc(N(Cc2ccc(-c3noc(C(F)(F)F)n3)s2)c2cnccn2)c1)N1C[C@@H]2C[C@H]1CO2` [Example FV, 5-[(1S,4S)-2-Oxa-5-azabicyclo[2.2.1]heptane-5-carbonyl]-N-(pyrazin-2-yl)-N-({5-[5-(trifluoromethyl)-1,2,4-oxadiazol-3-yl]thiophen-2-yl}methyl)pyridazin-3-amine], the IC50 at Human HDAC7 was ≤ 10000 nM; on Human HDAC8, ≤ 10000 nM; on Human HDAC2, > 10000 nM; at Human HDAC5, ≤ 1000 nM; on Human HDAC1, > 10000 nM.

For `O=C(c1cnnc(N(Cc2ccc(-c3noc(C(F)(F)F)n3)s2)c2cnccn2)c1)N1C[C@H]2C[C@@H]1CO2` [Example FW, 5-[(1R,4R)-2-Oxa-5-azabicyclo[2.2.1]heptane-5-carbonyl]-N-(pyrazin-2-yl)-N-({5-[5-(trifluoromethyl)-1,2,4-oxadiazol-3-yl]thiophen-2-yl}methyl)pyridazin-3-amine], the IC50 was ≤ 10000 nM on Human HDAC7; ≤ 10000 nM at Human HDAC8; > 10000 nM on Human HDAC2; ≤ 1000 nM at Human HDAC5; > 10000 nM at Human HDAC1.

As to `CN(C)C1CN(C(=O)c2cnnc(N(Cc3ccc(-c4noc(C(F)(F)F)n4)s3)c3cnccn3)c2)C1` [Example FX, 5-[3-(Dimethylamino)azetidine-1-carbonyl]-N-(pyrazin-2-yl)-N-({5-[5-(trifluoromethyl)-1,2,4-oxadiazol-3-yl]thiophen-2-yl}methyl)pyridazin-3-amine], the IC50 was ≤ 1000 nM at Human HDAC7; ≤ 10000 nM on Human HDAC8; > 10000 nM at Human HDAC2; ≤ 10000 nM at Human HDAC5; > 10000 nM at Human HDAC1.

In the case of `O=C(c1cnnc(N(Cc2ccc(-c3noc(C(F)(F)F)n3)s2)c2cnccn2)c1)N1CCC(F)(F)CC1` [Example FY, 5-(4,4-Difluoropiperidine-1-carbonyl)-N-(pyrazin-2-yl)-N-({5-[5-(trifluoromethyl)-1,2,4-oxadiazol-3-yl]thiophen-2-yl}methyl)pyridazin-3-amine], the half-inhibitory concentration (IC50) at Human HDAC7 is ≤ 10000 nM; at Human HDAC8, ≤ 10000 nM; at Human HDAC2 it was > 10000 nM; at Human HDAC5, ≤ 1000 nM; at Human HDAC1 it was > 10000 nM.

In the case of `O=C(c1cnnc(N(Cc2ccc(-c3noc(C(F)(F)F)n3)s2)c2cnccn2)c1)N1CC2(COC2)C1` [Example FZ, 5-{2-Oxa-6-azaspiro[3.3]heptane-6-carbonyl}-N-(pyrazin-2-yl)-N-({5-[5-(trifluoromethyl)-1,2,4-oxadiazol-3-yl]thiophen-2-yl}methyl)pyridazin-3-amine], the IC50 at Human HDAC7 is ≤ 1000 nM; on Human HDAC8, ≤ 10000 nM; on Human HDAC2, > 10000 nM; at Human HDAC5, ≤ 1000 nM; at Human HDAC1 it was > 10000 nM.

As to `O=C(c1cnnc(N(Cc2ccc(-c3noc(C(F)(F)F)n3)s2)c2cnccn2)c1)N1CC2CCC(C1)O2` [Example GA, 5-{8-Oxa-3-azabicyclo[3.2.1]octane-3-carbonyl}-N-(pyrazin-2-yl)-N-({5-[5-(trifluoromethyl)-1,2,4-oxadiazol-3-yl]thiophen-2-yl}methyl)pyridazin-3-amine], the concentration for half-maximal inhibition (IC50) is ≤ 10000 nM at Human HDAC7; ≤ 10000 nM at Human HDAC8; > 10000 nM at Human HDAC2; ≤ 1000 nM on Human HDAC5; > 10000 nM at Human HDAC1.

For `O=C(c1cnnc(N(Cc2ccc(-c3noc(C(F)(F)F)n3)s2)c2cnccn2)c1)N1C2CCC1COC2` [Example GB, 5-{3-Oxa-8-azabicyclo[3.2.1]octane-8-carbonyl}-N-(pyrazin-2-yl)-N-({5-[5-(trifluoromethyl)-1,2,4-oxadiazol-3-yl]thiophen-2-yl}methyl)pyridazin-3-amine], the concentration for half-maximal inhibition (IC50) was ≤ 10000 nM on Human HDAC7; ≤ 10000 nM at Human HDAC8; > 10000 nM at Human HDAC2; ≤ 1000 nM at Human HDAC5; > 10000 nM on Human HDAC1.

Regarding `CC(C)OC1CN(C(=O)c2cnnc(N(Cc3ccc(-c4noc(C(F)(F)F)n4)s3)c3cnccn3)c2)C1` [Example GC, 5-[3-(Propan-2-yloxy)azetidine-1-carbonyl]-N-(pyrazin-2-yl)-N-({5-[5-(trifluoromethyl)-1,2,4-oxadiazol-3-yl]thiophen-2-yl}methyl)pyridazin-3-amine], the IC50 at Human HDAC7 was ≤ 500 nM; at Human HDAC8, ≤ 10000 nM; at Human HDAC2, > 10000 nM; at Human HDAC5, ≤ 500 nM; on Human HDAC1 it was > 10000 nM.

`O=C(c1cnnc(N(Cc2ccc(-c3noc(C(F)(F)F)n3)s2)c2cnccn2)c1)N1CC(O)(C(F)(F)F)C1` [Example GD, 1-{6-[(Pyrazin-2-yl)({5-[5-(trifluoromethyl)-1,2,4-oxadiazol-3-yl]thiophen-2-yl}methyl)amino]pyridazine-4-carbonyl}-3-(trifluoromethyl)azetidin-3-ol]: the IC50 on Human HDAC7 is ≤ 1000 nM; at Human HDAC8, ≤ 10000 nM; on Human HDAC2, > 10000 nM; at Human HDAC5, ≤ 1000 nM; at Human HDAC1, ≤ 10000 nM.
